Tests used:
foxtail, green = assay: Test D postemergence; type: in vivo, Setaria viridis; settings: scale 0 to 100
Summary of the method: (§1)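 Visual 0-100 rating (100 = complete control) against untreated plants, made 14 to 21 days after treatment in a controlled environment. Compounds, formulated with surfactant in non-phytotoxic solvent, were applied either to seeds just sown in silt loam or to 1- to 4-leaf plants (2 to 18 cm) grown in peat-based medium.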

chamomile = assay: Test D postemergence; type: in vivo, Matricaria inodora; settings: scale 0 to 100
Summary of the method: as §1

common waterhemp = assay: Test F preemergence; type: in vivo, Amaranthus rudis
Source text: (§2) Seeds of plant species selected from corn (Zea mays), soybean (Glycine max), velvetleaf (Abutilon theophrasti), lambsquarters (Chenopodium album), wild poinsettia (Euphorbia heterophylla), pigweed, palmer (palmer pigweed, Amaranthus palmeri), common waterhemp (Amaranthus rudis), surinam grass (Brachiaria decumbens), large crabgrass (Digitaria sanguinalis), crabgrass, Brazil (Brazilian crabgrass, Digitaria horizontalis), fall panicum (Panicum dichotomiflorum), giant foxtail (Setaria faberii), green foxtail (Setaria viridis), goosegrass (Eleusine indica), johnsongrass (Sorghum halepense), common ragweed (Ambrosia elation), barnyardgrass (Echinochloa crus-galli), southern sandbur (Cenchrus echinatus), arrowleaf sida (Sida rhombifolia), Italian ryegrass (Lolium multiflorum), dayflower, VA (Virginia (VA) dayflower, Commelina virginica), field bindweed (Convolvulus arvensis), cocklebur (common cocklebur, Xanthium strumarium), morningglory (Ipomoea coccinea), nightshade (eastern black nightshade, Solanum ptycanthum), kochia (Kochia scoparia), yellow nutsedge (Cyperus esculentus), and hairy beggarticks (Bidens pilosa), were planted into a silt loam soil and treated preemergence with test chemicals formulated in a non-phytotoxic solvent mixture which included a surfactant.
(§3) At the same time, plants from these crop and weed species and also horseweed (Canada horseweed, Conyza canadensis), smartweed (ladysthumb smartweed, Polygonum persicaria), waterhemp_RES1, (ALS & Triazine resistant common waterhemp, Amaranthus rudis), and waterhemp_RES2, (ALS & HPPD resistant common waterhemp, Amaranthus rudis) were treated with postemergence applications of test chemicals formulated in the same manner. Plants ranged in height from 2 to 18 cm for postemergence treatments (1- to 4-leaf stage). Treated plants and controls were maintained in a greenhouse for 14 to 21 days, after which time all species were compared to controls and visually evaluated. Plant response ratings, summarized in Table F, are based on a scale of 0 to 100 where 0 is no effect and 100 is complete control. A dash (-) response means no test result.

field bindweed = assay: Test F preemergence; type: in vivo, Convolvulus arvensis
Summary of the method: (§4)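 Plant response is scored by eye relative to controls on a 0 to 100 scale, where 100 means complete control. Preemergence applications were made to seeded silt loam; postemergence ones to seedlings 2 to 18 cm high. Greenhouse holding time was 14 to 21 days.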

arrowleaf sida = assay: Test F preemergence; type: in vivo, Sida rhombifolia
Source text: as §2, §3

galium = assay: Test D postemergence; type: in vivo, Galium aparine; settings: scale 0 to 100
Source text: (§5) Seeds of plant species selected from bluegrass (annual bluegrass, Poa annua), blackgrass (Alopecurus myosuroides), canarygrass (littleseed canarygrass, Phalaris minor), chickweed (common chickweed, Stellaria media), galium (catchweed bedstraw, Galium aparine), bromegrass, downy (downy bromegrass, Bromus tectorum), field poppy (Papaver rhoeas), field violet (Viola arvensis), foxtail, green (green foxtail, Setaria viridis), deadnettle (henbit deadnettle, Lamium amplexicaule), ryegrass, Italian (Italian ryegrass, Lolium multiflorum), kochia (Kochia scoparia), lambsquarters (Chenopodium album), oilseed rape (Brassica napus), pigweed (redroot pigweed, Amaranthus retroflexus), chamomile (scentless chamomile, Matricaria inodora), speedwell (bird's-eye speedwell, Veronica persica), barley, spring (spring barley, Hordeum vulgare), wheat, spring (spring wheat, Triticum aestivum), buckwheat, wild (wild buckwheat, Polygonum convolvulus), mustard, wild (wild mustard, Sinapis arvensis), oat, wild (wild oat, Avena fatua), radish, wild (wild radish, Raphanus raphanistrum), windgrass (Apera spica-venti), Russian thistle (Salsola kali), barley, winter (winter barley, Hordeum vulgare), and wheat, winter (winter wheat, Triticum aestivum) were planted into a silt loam soil and treated preemergence with test chemicals formulated in a non-phytotoxic solvent mixture which included a surfactant.
(§6) At the same time, these species were planted in pots containing Redi-Earth® planting medium (Scotts Company, 14111 Scottslawn Road, Marysville, Ohio 43041) comprising spaghnum peat moss, vermiculite, wetting agent and starter nutrients and treated with postemergence applications of the test chemicals formulated in the same manner. Plants ranged in height from 2 to 18 cm (1- to 4-leaf stage). Treated plants and controls were maintained in a controlled growth environment for 14 to 21 days after which time all species were compared to controls and visually evaluated. Plant response ratings, summarized in Table D, are based on a scale of 0 to 100 where 0 is no effect and 100 is complete control. A dash (-) response means no test result.

field poppy = assay: Test D postemergence; type: in vivo, Papaver rhoeas; settings: scale 0 to 100
Summary of the method: as §1

wheat, winter = assay: Test D postemergence; type: in vivo, Triticum aestivum; settings: scale 0 to 100
Summary of the method: as §1

wheat, spring = assay: Test D postemergence; type: in vivo, Triticum aestivum; settings: scale 0 to 100
Summary of the method: as §1

kochia = assay: Test D preemergence; type: in vivo, Kochia scoparia; settings: scale 0 to 100
Summary of the method: as §1

buckwheat, wild = assay: Test D postemergence; type: in vivo, Polygonum convolvulus; settings: scale 0 to 100
Source text: as §5, §6

chickweed = assay: Test D preemergence; type: in vivo, Stellaria media; settings: scale 0 to 100
Source text: as §5, §6

dayflower, VA = assay: Test F preemergence; type: in vivo, Commelina virginica
Summary of the method: as §4

Italian ryegrass = assay: Test F preemergence; type: in vivo, Lolium multiflorum
Summary of the method: as §4

[1] = Preemergence, 31 g ai/ha, scale 0 to 100
[2] = Preemergence, 62 g ai/ha, scale 0 to 100
[3] = Preemergence, 125 g ai/ha, scale 0 to 100
[4] = preemergence, 8 g ai/ha, scale 0 to 100, 100 is complete control
[5] = preemergence, 16 g ai/ha, scale 0 to 100, 100 is complete control

CCc1cc(C(=O)NCC(F)(F)F)nn1Cc1ccnc(C(F)(F)F)c1 [Compound 78, 5-ethyl-N-(2,2,2-trifluoroethyl)-1-[[(2-trifluoromethyl)-4-pyridinyl]methyl]-1H-pyrazole-3-carboxamide] was tested, and the “Foxtail, Green plant response rating” value (foxtail, green; Postemergence, 31 g ai/ha) was 25, the “Foxtail, Green plant response rating” value (foxtail, green; Postemergence, 125 g ai/ha) was 70 and the “Foxtail, Green plant response rating” value (foxtail, green; Postemergence, 250 g ai/ha) was 80. The “Foxtail, Green plant response rating” value (foxtail, green; postemergence, 62 g ai/ha) was 60, the “Chamomile plant response rating” value (chamomile; Postemergence, 31 g ai/ha) was 30 and the “Chamomile plant response rating” value (chamomile; Postemergence, 125 g ai/ha) was 65. For the same compound, the “Chamomile plant response rating” value (chamomile; Postemergence, 250 g ai/ha) was 75, the “Chamomile plant response rating” value (chamomile; postemergence, 62 g ai/ha) was 50 and the “Plant response rating, Common Waterhemp” value (common waterhemp; [1]) was 100. For the same compound, the “Plant response rating, Common Waterhemp” value (common waterhemp; [2]) was 100, the “Plant response rating, Common Waterhemp” value (common waterhemp; [3]) was 100 and the “Plant response rating, Common Waterhemp” value (common waterhemp; [4]) was 65. The “Plant response rating, Common Waterhemp” value (common waterhemp; [5]) was 100, the “Plant response rating, Field Bindweed” value (field bindweed; [1]) was 100 and the “Plant response rating, Field Bindweed” value (field bindweed; [2]) was 90. The “Plant response rating, Field Bindweed” value (field bindweed; [3]) was 95, the “Plant response rating, Field Bindweed” value (field bindweed; [4]) was 0 and the “Plant response rating, Field Bindweed” value (field bindweed; [5]) was 0. For the same compound, the “Plant response rating, Arrowleaf Sida” value (arrowleaf sida; [1]) was 0, the “Plant response rating, Arrowleaf Sida” value (arrowleaf sida; [2]) was 20 and the “Plant response rating, Arrowleaf Sida” value (arrowleaf sida; [3]) was 35. The “Plant response rating, Arrowleaf Sida” value (arrowleaf sida; [4]) was 0, the “Plant response rating, Arrowleaf Sida” value (arrowleaf sida; [5]) was 0 and the “Galium plant response rating” value (galium; Postemergence, 31 g ai/ha) was 60. The “Galium plant response rating” value (galium; Postemergence, 125 g ai/ha) was 80, the “Galium plant response rating” value (galium; Postemergence, 250 g ai/ha) was 85 and the “Galium plant response rating” value (galium; postemergence, 62 g ai/ha) was 70. The “Field Poppy plant response rating” value (field poppy; Postemergence, 31 g ai/ha) was 55, the “Field Poppy plant response rating” value (field poppy; Postemergence, 125 g ai/ha) was 70 and the “Field Poppy plant response rating” value (field poppy; Postemergence, 250 g ai/ha) was 85. For the same compound, the “Field Poppy plant response rating” value (field poppy; postemergence, 62 g ai/ha) was 65, the “Wheat, Winter plant response rating” value (wheat, winter; Postemergence, 31 g ai/ha) was 10 and the “Wheat, Winter plant response rating” value (wheat, winter; Postemergence, 125 g ai/ha) was 25. For the same compound, the “Wheat, Winter plant response rating” value (wheat, winter; Postemergence, 250 g ai/ha) was 55, the “Wheat, Winter plant response rating” value (wheat, winter; postemergence, 62 g ai/ha) was 15 and the “Wheat, Spring plant response rating” value (wheat, spring; Postemergence, 31 g ai/ha) was 0. For the same compound, the “Wheat, Spring plant response rating” value (wheat, spring; Postemergence, 125 g ai/ha) was 15, the “Wheat, Spring plant response rating” value (wheat, spring; Postemergence, 250 g ai/ha) was 25 and the “Wheat, Spring plant response rating” value (wheat, spring; postemergence, 62 g ai/ha) was 5. For the same compound, the “Plant response rating, Kochia” value (kochia; 31 g ai/ha) was 95, the “Plant response rating, Kochia” value (kochia; 62 g ai/ha) was 100 and the “Plant response rating, Kochia” value (kochia; 125 g ai/ha) was 100. For the same compound, the “Plant response rating, Kochia” value (kochia; 250 g ai/ha) was 100, the “Buckwheat, Wild plant response rating” value (buckwheat, wild; Postemergence, 31 g ai/ha) was 50 and the “Buckwheat, Wild plant response rating” value (buckwheat, wild; Postemergence, 125 g ai/ha) was 65. The “Buckwheat, Wild plant response rating” value (buckwheat, wild; Postemergence, 250 g ai/ha) was 70, the “Buckwheat, Wild plant response rating” value (buckwheat, wild; postemergence, 62 g ai/ha) was 60 and the “Plant response rating, Chickweed” value (chickweed; 31 g ai/ha) was 100. For the same compound, the “Plant response rating, Chickweed” value (chickweed; 62 g ai/ha) was 100, the “Plant response rating, Chickweed” value (chickweed; 125 g ai/ha) was 100 and the “Plant response rating, Chickweed” value (chickweed; 250 g ai/ha) was 100. For the same compound, the “Plant response rating, Dayflower, VA” value (dayflower, VA; [1]) was 50, the “Plant response rating, Dayflower, VA” value (dayflower, VA; [2]) was 95 and the “Plant response rating, Dayflower, VA” value (dayflower, VA; [3]) was 100. For the same compound, the “Plant response rating, Dayflower, VA” value (dayflower, VA; [4]) was 0, the “Plant response rating, Dayflower, VA” value (dayflower, VA; [5]) was 0 and the “Plant response rating, Italian Ryegrass” value (Italian ryegrass; [1]) was 5. The “Plant response rating, Italian Ryegrass” value (Italian ryegrass; [2]) was 60, the “Plant response rating, Italian Ryegrass” value (Italian ryegrass; [3]) was 90 and the “Plant response rating, Italian Ryegrass” value (Italian ryegrass; [4]) was 0. The “Plant response rating, Italian Ryegrass” value (Italian ryegrass; [5]) was 0.

Source: patent publication US20150105252A1, “SUBSTITUTED PYRAZOLES AS HERBICIDES” (E I DU PONT DE NEMOURS AND COMPANY, priority 2013, published 2015)
